From US20100120789A1, “Compound” (priority 2005, published 2010)

Legend:
[1] = target: T1, Human 11β-HSD1 (Homo sapiens, UniProt P28845); test: 11β-HSD1 HEK assay (whole HEK 293 cells stably transfected with HSD11B1, SPA); assay type: cell-based; parameters: expressed in transfected cells; host or cells: HEK 293; details: HEK293
[2] = target: T1, Human 11β-HSD1; test: 11β-HSD1 HTRF assay (human liver microsome fractions, cortisol by HTRF); assay type: biochemical; details: 10 μM compound; human liver microsomes
Protocol: 11β-HSD1 HTRF Assay Protocol
The 11β-HSD Type 1 assay was carried out at room temperature in 96 well microtitre plates in a total volume of 40 μl. Assay buffer contained 30 mM Tris.HCl, 1 mM EDTA, pH 7.2. Inhibitor compounds were tested at varying concentrations at a final Dimethyl Sulphoxide concentration of 1%. Compounds were usually tested at 10 μM. The substrate mixture contained cortisone, NADPH and glucose-6-phosphate at final concentrations of 1 μM, 180 μM and 1 mM respectively. Assays were started by the addition of 10p1 human liver microsome fractions, 20 mg per ml protein, containing 11β-HSD Type 1, diluted 1 to 40 prior to use. Following mixing microtitre plates were shaken for 30 minutes. Reactions were stopped by the addition of 10 μl 1 mM Glyccheritinnic acid solution. Production of Cortisol was measured by Homogenous Time Resolved Fluorescence using a cortisol assay kit; Cisbio International Cortisol HTRF kit (62CORPEB), following the manufacturer's protocol.

[3] = target: T1, Human 11β-HSD1; test: 11β-HSD1 HEK assay (whole HEK 293 cells stably transfected with HSD11B1, SPA); assay type: cell-based; parameters: expressed in transfected cells; host or cells: HEK 293; details: HEK293, read-out: % INHIBITION of Human 11 β-HSD1 at 10 μM (HEK)
Protocol: 11β-HSD1 HEK Assay Protocol (Cell Based Assay)
11β-HSD1 activity is measured in whole HEK 293 cells stably transfected with the HSD11B1 gene. Cells are incubated in 96-well microplates in the presence of tritiated substrate. Enzyme activity is determined by measuring the amount of tritated product by scintillation proximity assay (SPA). Assay plates contain internal high and low controls to allow calculation of percentage inhibition.
2. When the cells are 80% confluent the medium is removed from each well. 100 μl fresh, serum-free, medium containing ^3H-cortisone and test compound in 1% DMSO is added to each well*. Control wells are also dispensed.
3. The plate is incubated at […] for the required time period.
4. 50 μl of media is removed from each well and transferred to a microplate containing 100 μl of a pre-incubated mixture of anti-cortisol antibody and SPA bead. The mixture is incubated with gentle shaking until equilibrium is reached, before transferring to a scintillation counter to establish the enzyme activity in each sample.
10 μl of compound is dispensed into each well of a 96-well microplate in 10% DMSO at 100 μM concentration. 90 μl media containing ^3H-cortisone is added to each well. The compound/media/substrate mixture is then transferred to the assay plate containing the cells.

T1 sequence (P28845 whole entry): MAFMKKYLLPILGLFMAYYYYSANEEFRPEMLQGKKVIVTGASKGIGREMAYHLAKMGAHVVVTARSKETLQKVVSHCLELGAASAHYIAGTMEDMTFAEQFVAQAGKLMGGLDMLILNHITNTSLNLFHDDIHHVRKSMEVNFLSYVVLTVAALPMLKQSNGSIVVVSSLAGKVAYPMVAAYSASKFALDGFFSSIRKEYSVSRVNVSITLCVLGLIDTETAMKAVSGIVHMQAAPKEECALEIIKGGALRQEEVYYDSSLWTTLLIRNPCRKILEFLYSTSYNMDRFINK

inhibition at 1 µM [1] [%] | SMILES | inhibition at 10 µM [2] [%] | inhibition at 10 µM [3] [%]
63 | NC(=O)c1ccc(COCC(=O)C23CC4CC(CC(C4)C2)C3)cc1 [Compound 17] |  | 
 | O=C(CNc1ccc(Cl)cc1)C12CC3CC(CC(C3)C1)C2 [compound 1535] | > 60 | > 60
 | Cc1ccc(SCC(=O)C23CC4CC(CC(C4)C2)C3)cc1 [compound 1537] | > 60 | > 60
 | O=C(CSc1cc(Cl)ccc1Cl)C12CC3CC(CC(C3)C1)C2 [compound 1538] | > 60 | > 60
 | O=C(CS(=O)(=O)c1ccc(Cl)cc1)C12CC3CC(CC(C3)C1)C2 [compound 1539] | > 60 | 20 to 60
 | O=C(NCc1ccccn1)C12CC3CC(CC(C3)C1)C2 [compound 1540] | > 60 | 20 to 60
 | O=C(NCCc1ccccn1)C12CC3CC(CC(C3)C1)C2 [compound 1541] | > 60 | > 60
 | O=C(NCc1cccnc1)C12CC3CC(CC(C3)C1)C2 [compound 1542] | > 60 | > 60
 | O=C(NCCc1cccnc1)C12CC3CC(CC(C3)C1)C2 [compound 1543] | > 60 | < 20
 | COc1ccc(NC(=O)C23CC4CC(CC(C4)C2)C3)cn1 [compound 1544] | > 60 | 20 to 60
 | Cc1cnc(CNC(=O)C23CC4CC(CC(C4)C2)C3)cn1 [compound 1545] | > 60 | 20 to 60
 | Cc1ccc(S(=O)(=O)CC(=O)C23CC4CC(CC(C4)C2)C3)cc1 [compound 1562] | > 60 | > 60
 | O=C(C[S+]([O-])c1cc(Cl)ccc1Cl)C12CC3CC(CC(C3)C1)C2 (stereo not shown) [compound 1563] | > 60 | > 60
 | O=C(CC12CC3CC(CC(C3)C1)C2)NCc1cccs1 [compound 1564] | > 60 | > 60
 | O=C(CC12CC3CC(CC(C3)C1)C2)NCc1ccccn1 [compound 1565] | > 60 | 20 to 60
 | O=C(COc1ccc(-c2ccccc2)cc1)C12CC3CC(CC(C3)C1)C2 [compound 1567] | > 60 | > 60
 | COc1ccc(OCC(=O)C23CC4CC(CC(C4)C2)C3)cc1OC [compound 1568] | > 60 | > 60
 | CC(=O)Nc1ccc(OCC(=O)C23CC4CC(CC(C4)C2)C3)cc1 [compound 1569] | > 60 | > 60
 | O=C(CC12CC3CC(CC(C3)C1)C2)NCCc1cccs1 [compound 1570] | > 60 | > 60

inhibition at 1 µM [1] [%] | SMILES | inhibition at 10 µM [2] [%] | inhibition at 10 µM [3] [%]
 | Cc1nc2c(NC(=O)CC34CC5CC(CC(C5)C3)C4)c(C)ccc2s1 [compound 1572] | > 60 | < 20
 | O=S(=O)(NC1C2CC3CC(C2)CC1C3)c1cccs1 (stereo not shown) [compound 1574] | > 60 | 20 to 60
 | O=S(=O)(NCC12CC3CC(CC(C3)C1)C2)c1cccs1 [compound 1575] | > 60 | < 20
 | Cn1cnc(CNC(=O)C23CC4CC(CC(C4)C2)C3)c1 [compound 1577] | > 60 | > 60
 | Cn1cccc1CNC(=O)C12CC3CC(CC(C3)C1)C2 [compound 1578] | > 60 | > 60
 | O=C(NCc1ccco1)C12CC3CC(CC(C3)C1)C2 [compound 1579] | > 60 | > 60
 | O=C(NCCCn1ccnc1)C12CC3CC(CC(C3)C1)C2 [compound 1580] | 20 to 60 | 20 to 60
 | O=C(NCCc1c[nH]c2ccccc12)C12CC3CC(CC(C3)C1)C2 [compound 1581] | > 60 | > 60
 | CN1CCCC1CCNC(=O)C12CC3CC(CC(C3)C1)C2 (stereo not shown) [compound 1597] | > 60 | < 20
 | O=C(NCCN1CCCCC1)C12CC3CC(CC(C3)C1)C2 [compound 1598] | > 60 | > 60
 | Cc1ccc(-c2noc(C34CC5CC(CC(C5)C3)C4)n2)cc1 [compound 1599] | 20 to 60 | 20 to 60
 | O=C(COc1ccc(Cl)cc1)C12CC3CC(CC(C3)C1)C2 [compound 1610] | > 60 | > 60
 | O=C(COc1cc(Cl)ccc1Cl)C12CC3CC(CC(C3)C1)C2 [compound 1618] | > 60 | > 60
 | Cc1ccc(OCC(=O)C23CC4CC(CC(C4)C2)C3)cc1 [compound 1619] | > 60 | > 60
 | O=C(CSCc1ccc(Cl)cc1)C12CC3CC(CC(C3)C1)C2 [compound 1621] | > 60 | > 60
 | O=C(COCc1ccc(Cl)cc1)C12CC3CC(CC(C3)C1)C2 [compound 1626] | > 60 | 20 to 60
 | O=C(C[S+]([O-])Cc1ccc(Cl)cc1)C12CC3CC(CC(C3)C1)C2 (stereo not shown) [compound 1628] | > 60 | > 60
 | O=C(CS(=O)(=O)Cc1ccc(Cl)cc1)C12CC3CC(CC(C3)C1)C2 [compound 1632] | > 60 | > 60
